Read-outs that look alike come from different tables or passages of the source.
System: cancer cell lines
Experiment: Cancer cell proliferation activity (CellTiterGlo, 72 h)
Format: cell-based
Conditions: 72 h, 72 h, read-out: IC50
Summary of the method: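 Cells seeded overnight at 37 °C, then dosed with compound at 0.1% final DMSO and incubated 72 h at 37 °C (5% or 10% CO2 by medium).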

IC50 (5637 cell line (bladder)): > 50 µM | IC50 (AS49 cell line (lung)): > 50 µM | IC50 (CLS439 cell line (bladder)): > 50 µM | IC50 (HS729 cell line (muscle)): > 50 µM | IC50 (JAR cell line (placenta)): > 50 µM | IC50 (Homo sapiens, 786-0, 72 h, 786O cell line (kidney)): > 50 µM | IC50 (Homo sapiens, A2780, 72 h, A2780 cell line (ovary)): > 50 µM | IC50 (Homo sapiens, A-375, 72 h, A375 cell line (skin)): > 50 µM | IC50 (Homo sapiens, A-431, 72 h, A431 cell line (skin)): 2.6 µM | IC50 (Homo sapiens, ASPC1, 72 h, ASPC1 cell line (pancreas)): > 50 µM | IC50 (Homo sapiens, BT-20, 72 h, BT20 cell line (breast)): > 50 µM | IC50 (Homo sapiens, CAKI-1, 72 h, CAKI1 cell line (kidney)): > 50 µM | IC50 (Homo sapiens, COLO 205, 72 h, COLO205 cell line (colon)): > 50 µM | IC50 (Homo sapiens, COLO-678, 72 h, COLO678 cell line (colon)): > 50 µM | IC50 (Homo sapiens, Ca-Ski, CASKI cell line (cervical)): > 50 µM | IC50 (Homo sapiens, Caco-2, 72 h, CACO2 cell line (colon)): > 50 µM | IC50 (Homo sapiens, Calu-6, 72 h, CALU6 cell line (lung)): > 50 µM | IC50 (Homo sapiens, EFO-21, 72 h, EFO21 cell line (ovary)): > 50 µM | IC50 (Homo sapiens, EJ-28, 72 h, EJ28 cell line (bladder)): > 50 µM | IC50 (Homo sapiens, HCT-15, 72 h, HCT15 cell line (colon)): > 50 µM | IC50 (Homo sapiens, HCT-116, 72 h, HCT116 cell line (colon)): > 50 µM | IC50 (Homo sapiens, HEK293, 72 h, HEK293 cell line (kidney)): > 50 µM | IC50 (Homo sapiens, HL-60, 72 h, HL-60 cell line (hematological)): > 50 µM | IC50 (Homo sapiens, HT-29, 72 h, HT29 cell line (colon)): > 50 µM | IC50 (Homo sapiens, HT-1080, 72 h, HT1080 cell line (connective tissue)): > 50 µM | IC50 (Homo sapiens, HeLa, HELA cell line (cervical)): > 50 µM | IC50 (Homo sapiens, Hs-578T, HS578T cell line, breast): > 50 µM | IC50 (Homo sapiens, IGROV-1, 72 h, IGROV1 cell line (ovary)): > 50 µM | IC50 (Homo sapiens, IMR-90, 72 h, IMR90 cell line, lung): > 50 µM | IC50 (Homo sapiens, J82, 72 h, J82 cell line (bladder)): 4.88 µM | IC50 (Homo sapiens, JEG-3, 72 h, JEG3 cell line (placenta)): > 50 µM | IC50 (Homo sapiens, JIMT-1, 72 h, JIMT1 cell line (breast)): > 50 µM | IC50 (Homo sapiens, K562, 72 h, K-562 cell line (hematological)): > 50 µM | IC50 (Homo sapiens, Kasumi 1, 72 h, KASUMI-1 cell line (hematological)): > 50 µM | IC50 (Homo sapiens, L-363, 72 h, L-363 cell line (hematological)): > 50 µM | IC50 (Homo sapiens, MCF7, 72 h, MCF7 cell line (breast)): > 50 µM | IC50 (Homo sapiens, MDA-MB-231, 72 h, MDAMB231 cell line (breast)): > 50 µM | IC50 (Homo sapiens, MDA-MB-435, 72 h, MDAMB435 cell line (skin)): > 50 µM | IC50 (Homo sapiens, MDA-MB-468, 72 h, MDAMB468 cell line (breast)): > 50 µM | IC50 (Homo sapiens, MG-63, 72 h, MG63 cell line (bone)): > 50 µM | IC50 (Homo sapiens, MIA PaCa-2, 72 h, MIAPACA2 cell line (pancreas)): > 50 µM | IC50 (Homo sapiens, MV4-11, 72 h, MV4-11 cell line (hematological)): 0.38 µM | IC50 (Homo sapiens, NCI-H292, 72 h, NCIH292 cell line (lung)): > 50 µM | IC50 (Homo sapiens, NCI-H460, 72 h, NCIH460 cell line (lung)): 2.8 µM | IC50 (Homo sapiens, OVCAR-3, 72 h, OVCAR3 cell line (ovary)): > 50 µM | IC50 (Homo sapiens, OVCAR-4, 72 h, OVCAR4 cell line (ovary)): > 50 µM | IC50 (Homo sapiens, PANC-1, 72 h, PANC1 cell line (pancreas)): > 50 µM | IC50 (Homo sapiens, PC-3, 72 h, PC3 cell line (prostate)): > 50 µM | IC50 (Homo sapiens, Panc1005, 72 h, PANC1005 cell line (pancreas)): > 50 µM | IC50 (Homo sapiens, RD, RD cell line (muscle)): > 50 µM | IC50 (Homo sapiens, Ramos, RAMOS cell line (hematological)): > 50 µM | IC50 (Homo sapiens, SAOS-2, 72 h, SAOS2 cell line (bone)): > 50 µM | IC50 (Homo sapiens, SF-295, 72 h, SF295 cell line (brain)): > 50 µM | IC50 (Homo sapiens, SK-MEL-5, 72 h, SKMEL5 cell line, skin): > 50 µM | IC50 (Homo sapiens, SK-MEL-28, 72 h, SKMEL28 cell line (skin)): > 50 µM | IC50 (Homo sapiens, SK-N-AS, SKNAS cell line (brain)): > 50 µM | IC50 (Homo sapiens, SK-N-SH, SKNSH cell line (brain)): > 50 µM | IC50 (Homo sapiens, SK-OV-3, 72 h, SKOV3 cell line (ovary)): > 50 µM | IC50 (Homo sapiens, SU-DHL10, 72 h, SU-DHL-10 cell line (hematological)): > 50 µM | IC50 (Homo sapiens, SW-620, 72 h, SW620 cell line (colon)): > 50 µM | IC50 (Homo sapiens, T-24, 72 h, T24 cell line (bladder)): 3.01 µM | IC50 (Homo sapiens, TE-671, 72 h, TE671 cell line (muscle)): > 50 µM | IC50 (Homo sapiens, U2OS, U2OS cell line (bone)): > 50 µM | IC50 (Homo sapiens, UMUC3, 72 h, UMUC3 cell line (bladder)): > 50 µM | IC50 (Homo sapiens, UO-31, 72 h, UO31 cell line (kidney)): > 50 µM | IC50 (MT-3, 72 h, MT3 cell line (breast)): 3.77 µM | IC50 (NCI-H358M, NCIH358M cell line (lung)): > 50 µM | IC50 (PBMC, PBMC (hematological)): > 50 µM
SMILES: Cc1cn([C@H]2C[C@H](O)[C@@](C#N)(CO)O2)c(=O)[nH]c1=O [Cpd. No. 123, (2R,3S,5R)-3-hydroxy-2-(hydroxymethyl)-5-(5-methyl-2,4-dioxo-3,4-dihydropyrimidin-1(2H)-yl)tetrahydrofuran-2-carbonitrile]

— patent US20250215039A1, “NUCLEOSIDES FOR TREATING CANCER” (PRIMEFOUR THERAPEUTICS, INC., priority 2022, published 2025)
